Patent publication US20070021509A1, “Phosphate transport inhibitors” (priority 2001, published 2007)

Test system: glucose transport (rabbit intestinal BBMV)
Experiment: In vitro BBMV assay, glucose transport inhibiting activity
Format: biochemical
Settings: Table 14
Protocol: In the remaining wells, used for compound containing reactions, are placed MAX Control Buffer. The Hot Stock Plate was stored at room temperature. To each well of an appropriate 96-well filter plate was added approximately 200 μL Stop Buffer to pre-wet the filters for at least 15 minutes prior to assay. The “Compound Plate” was set-up by loading appropriate wells of a 96-well, polypropylene, V-bottom plate with compound solutions. This could be for testing inhibition at a single “screening” concentration, or to measure the potency of compounds by dose-response analysis at the appropriate concentrations. A “BBMV Plate” was set up by loading a 96-well, polypropylene, V-bottom plate with BBMVs at 0.5-2.0 mg/mL (prepared as described above). The BBMV Plate was kept on ice until just prior to the assay. The reaction was initiated by aspiration of the hot uptake buffers (19 uL), from the Hot Stock Plate, and the compound solutions (2 uL), from the Compound Plate, dispensing into an empty 96-well V-bottom plate (Assay Plate), then immediately aspirating the BBMVs (19 μL), from the BBMV Plate and dispensing into the same Assay Plate. The addition of the BBMVs to the assay plate marked the reaction start time. After 15 minutes, the reaction was quenched by addition of 200 μL of STOP buffer from a reservoir. The Stop Buffer was aspirated by vacuum from the wells, through the filters, of the pre-soaked filter plate using a filter plate manifold. The quenched reactions were aspirated and transferred to the filter plate under vacuum. The filters were washed 2 times with 200 μL STOP buffer under vacuum. The filter plate was removed, dried, and the bottom of the filter plate was sealed. To each well of the filter plate was added 50 μL of scintillant (Microscint-20). A top seal was then applied to the filter plate. The plate was incubated for approximately 20 minutes before reading for ^33P CPM on a scintillation counter (i.e., TopCount-Packard Instruments). Percent inhibition was calculated by comparing the CPM values from compound containing wells to the MAX and MIN controls on the same plate using the following formula. 1−((CPM−MIN)/(MAX−MIN)) IC50 values were calculated from non-linear regression analysis within an appropriate software package (i.e., Prism GraphPad).
The phosphate transport inhibitors indicated in Table 14 were tested in both an in vitro and an ex vivo assay to determine their activity. The in vitro assay is identical to the assay described in Example 66, with the exception that the glucose transport inhibiting activity of the compounds was also measured. Results are reported as the IC50 value for the various types of inhibition. A preferred compound will have high phosphate transport inhibiting activity, but little or no glucose transport inhibiting activity.

IC50	SMILES
> 100 µM	COc1ccccc1CNC(=O)c1cc(Br)ccc1NS(=O)(=O)c1ccc(OC(F)(F)F)cc1 [Example 70, 5-Bromo-N-(2-methoxy-benzyl)-2-(4-trifluoromethoxy-benzenesulfonylamino)-benzamide]
> 100 µM	O=C(NCc1ccc(F)cc1)c1cc(Br)ccc1NS(=O)(=O)c1ccc(OC(F)(F)F)cc1 [Example 71, 5-Bromo-N-(4-fluoro-benzyl)-2-(4-trifluoromethoxy-benzenesulfonylamino)-benzamide]
80 µM	O=C(NCc1ccc(OC(F)(F)F)cc1O)c1cc(Br)ccc1NS(=O)(=O)c1ccc(OC(F)(F)F)cc1 [Example 75, 5-Bromo-N-(2-hydroxy-4-trifluoromethoxy-benzyl)-2-(4-trifluoromethoxy-benzenesulfonylamino)-benzamide]
100 µM	COc1ccc(F)cc1CNC(=O)c1cc(Br)ccc1NS(=O)(=O)c1ccc(OC(F)(F)F)cc1 [Example 78, 5-Bromo-N-(5-fluoro-2-methoxy-benzyl)-2-(4-trifluoromethoxy-benzenesulfonylamino)-benzamide]
54 µM	O=C(Nc1cccc(C(F)(F)F)c1)Nc1cccc(C(F)(F)F)c1 [Example 82, 1,3Bis(3-Trifluoromethylphenyl)urea]
82 µM	O=C(Nc1cc(C(F)(F)F)cc(C(F)(F)F)c1)NC1CCCCC1 [Example 83, 1-Cyclohexyl-3-(3,5-Bistrifluoromethyl-phenyl)-urea]
99 µM	Cn1nc(C(C)(C)C)cc1C(=O)Nc1ccc(C(F)(F)F)cc1 [Example 84, 5-tert-Butyl-2-methyl-2H-pyrazole-3-carboxylic acid (4-trifluoromethyl-phenyl)-amide]
> 100 µM	O=C(Nc1cccc(C(F)(F)F)c1)Nc1cc(Cl)ccc1Cl [Example 85, 1-(2,5-Dichloro-phenyl)-3-(3-trifluoromethyl-phenyl)-urea]
34 µM	O=C(Nc1cccc(C(F)(F)F)c1)Nc1ccc(F)c([N+](=O)[O-])c1 [Example 86, 1-(4-Fluoro-3-nitro-phenyl)-3-(3-trifluoromethyl-phenyl)-urea]
94 µM	Cl.N=C(Nc1ccc(Br)c(C(F)(F)F)c1)Nc1ccc(Br)c(C(F)(F)F)c1 [Example 87, N,N′-Bis-(4-bromo-3-trifluoromethyl-phenyl)-guanidine Hydrochloride]
63 µM	Cl.N=C(Nc1cc(C(F)(F)F)cc(C(F)(F)F)c1)Nc1cc(C(F)(F)F)cc(C(F)(F)F)c1 [Example 88, N,N′-Bis-(3,5-bis-trifluoromethyl-phenyl)-guanidine Hydrochloride]
88 µM	Cl.N=C(Nc1ccc(Cl)c(C(F)(F)F)c1)Nc1ccc(Cl)c(C(F)(F)F)c1 [Example 89, N,N′-Bis-(4-chloro-3-trifluoromethyl-phenyl)-guanidine Hydrochloride]
> 100 µM	Cl.N=C(Nc1ccc(C(F)(F)F)c(C(F)(F)F)c1)Nc1ccc(C(F)(F)F)c(C(F)(F)F)c1 [Example 90, N,N′-Bis-(3,4-bis-trifluoromethyl-phenyl)-guanidine Hydrochloride]
